Molecular target: T1, recombinant human PAI-1 (Homo sapiens, UniProt P05121)
T1 construct: purchased Molecular Innovations, Inc
Test: Test Example 2: human PAI-1 inhibitory activity (tPA fluorogenic substrate, pH 7.4 HEPES buffer)
Type: biochemical
Conditions: human PAI-1
Description: 0.1 M HEPES, 0.1 M NaCl. 1 mM EDTA. 0.1% Polyethylene glycol 8,000 (Hampton Research Corporation),
2 mM Dimethyldecylphoshine oxide [Apo-10] (Fluka Corporation)

T1 sequence (P05121 24-402): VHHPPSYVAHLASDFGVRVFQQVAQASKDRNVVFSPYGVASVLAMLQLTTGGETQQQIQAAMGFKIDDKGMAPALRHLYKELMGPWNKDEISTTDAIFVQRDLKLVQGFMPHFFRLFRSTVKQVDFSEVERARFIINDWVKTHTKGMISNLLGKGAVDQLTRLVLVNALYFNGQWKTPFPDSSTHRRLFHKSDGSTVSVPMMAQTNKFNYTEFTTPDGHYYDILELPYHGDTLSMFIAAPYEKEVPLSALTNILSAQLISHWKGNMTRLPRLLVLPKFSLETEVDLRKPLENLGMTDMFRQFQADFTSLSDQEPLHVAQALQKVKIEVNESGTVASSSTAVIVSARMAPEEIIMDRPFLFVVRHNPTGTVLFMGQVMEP

| SMILES | Inhibition Rate of PAI-1 Activity (%) (compound concentration 0.1 μM) | Inhibition Rate of PAI-1 Activity (%) (compound concentration 0.3 μM) | Inhibition Rate of PAI-1 Activity (%) (compound concentration 1 μM) | Inhibition Rate of PAI-1 Activity (%) (compound concentration 3 μM) | Inhibition Rate of PAI-1 Activity (%) (compound concentration 10 μM) | Inhibition Rate of PAI-1 Activity (%) (compound concentration 25 μM) |
| --- | --- | --- | --- | --- | --- | --- |
| CC(C)(C)c1ccc(Oc2cc(-c3ccc(OC(F)(F)F)cc3)ccc2CCCC(=O)O)cc1 [Compound 527] | 6 | 36 | 98 | >99 | – | – |
| O=C(O)/C=C/c1ccc(-c2ccc(OC(F)(F)F)cc2)cc1Sc1ccccc1 [Compound 528] | 8 | 12 | 51 | 97 | – | – |
| CC(C)(C)c1ccc(Sc2cc(-c3ccc(OC(F)(F)F)cc3)ccc2/C=C\C(=O)O)cc1 [Compound 529] | 18 | 29 | 94 | >99 | – | – |
| CC(C)(C)c1ccc(Sc2cc(-c3ccc(OC(F)(F)F)cc3)ccc2CC(=O)O)cc1 [Compound 530] | 17 | 21 | 93 | >99 | – | – |
| CC(C)(C)c1ccc(Oc2cc(Nc3ccc(OC(F)(F)F)cc3)ccc2/C=C/C(=O)O)cc1 [Compound 531] | 3 | 38 | 94 | 96 | – | – |
| CC(C)(C)c1ccc(Oc2cc(Nc3ccc(OC(F)(F)F)cc3)ccc2CCC(=O)O)cc1 [Compound 532] | 12 | 59 | >99 | >99 | – | – |
| CCCCN(CC(=O)O)c1ccc(-c2ccc(OC(F)(F)F)cc2)cc1Oc1ccc(C(C)(C)C)cc1 [Compound 533] | 25 | 83 | 97 | 97 | – | – |
| CN(CC(=O)O)c1ccc(-c2ccc(OC(F)(F)F)cc2)cc1Oc1ccc(C(C)(C)C)cc1 [Compound 534] | 13 | 21 | 84 | >99 | – | – |
| CC(C)(C)c1ccc(Oc2cc(Nc3ccc(OC(F)(F)F)cc3)ccc2OCC(=O)O)cc1 [Compound 536] | 1 | 12 | 87 | >99 | – | – |
| CC(C)(C)c1ccc(Oc2ccc(Oc3ccc(OC(F)(F)F)cc3)cc2OCC(=O)O)cc1 [Compound 537] | 0 | 26 | 92 | 97 | – | – |
| CC(C)(C)c1ccc(Oc2cc(Oc3ccc(OC(F)(F)F)cc3)ccc2OCC(=O)O)cc1 [Compound 538] | 0 | 12 | 87 | 98 | – | – |
| O=C(O)/C=C/c1cc(-c2ccc(OC(F)(F)F)cc2)ccc1OCCCCCOc1ccc(-c2ccc(OC(F)(F)F)cc2)cc1/C=C/C(=O)O [Compound 543] | 0 | 1 | 73 | 94 | – | – |
| O=C(O)CCc1cc(-c2ccc(OC(F)(F)F)cc2)ccc1OCCCCCOc1ccc(-c2ccc(OC(F)(F)F)cc2)cc1CCC(=O)O [Compound 544] | 0 | 3 | 56 | 92 | – | – |
| CC(C)(C)c1ccc(Sc2cc(-c3ccc(OC(F)(F)F)cc3)ccc2C(=O)O)cc1 [Compound 547] | 4 | 17 | 97 | >99 | – | – |
| CC(C)(C)c1ccc(Sc2cc(-c3ccc(OC(F)(F)F)cc3)ccc2C(=O)C(=O)O)cc1 [Compound 548] | 0 | 16 | 95 | >99 | – | – |
| CC(C)(C)c1ccc(C(=O)c2cc(-c3ccc(OC(F)(F)F)cc3)ccc2OCC(=O)O)cc1 [Compound 549] | 23 | 22 | 84 | >99 | – | – |
| CC(C)(C)c1ccc(Cc2cc(-c3ccc(OC(F)(F)F)cc3)ccc2OCC(=O)O)cc1 [Compound 550] | 0 | 2 | 81 | >99 | – | – |
| CC(C)(C)c1ccc(CCc2cc(-c3ccc(OC(F)(F)F)cc3)ccc2OCC(=O)O)cc1 [Compound 551] | 0 | 4 | 92 | >99 | – | – |

| SMILES | Inhibition Rate of PAI-1 Activity (%) (compound concentration 0.1 μM) | Inhibition Rate of PAI-1 Activity (%) (compound concentration 0.3 μM) | Inhibition Rate of PAI-1 Activity (%) (compound concentration 1 μM) | Inhibition Rate of PAI-1 Activity (%) (compound concentration 3 μM) | Inhibition Rate of PAI-1 Activity (%) (compound concentration 10 μM) | Inhibition Rate of PAI-1 Activity (%) (compound concentration 25 μM) |
| --- | --- | --- | --- | --- | --- | --- |
| O=C(O)CC(=O)N(Cc1ccccc1)c1ccc(-c2ccc(OC(F)(F)F)cc2)cc1F [Compound 602] | – | – | 9 | 18 | 78 | >99 |
| CC(C)(C)c1ccc(CN(C(=O)CCCC(=O)O)c2ccc(-c3ccc(OC(F)(F)F)cc3)cc2)cc1 [Compound 604] | – | – | 0 | 20 | 36 | 46 |
| CC(C)(C)c1ccc(CN(C(=O)CC(=O)O)c2ccc(-c3ccc(OC(F)(F)F)cc3)cc2)cc1 [Compound 608] | – | – | 11 | 59 | 95 | 95 |
| CC(C)(C)c1ccc(N(CC(=O)O)c2ccccc2Oc2ccc(OC(F)(F)F)cc2)cc1 [Compound 610] | – | – | 49 | 94 | 97 | 86 |
| O=C(O)C(=O)N(Cc1ccc(-c2ccc(OC(F)(F)F)cc2)cc1)c1ccccc1 [Compound 611] | – | – | 5 | 13 | 45 | 81 |
| CC(C)(C)c1ccc(N(Cc2ccc(-c3ccccc3)cc2)C(=O)C(=O)O)cc1 [Compound 612] | – | – | 7 | 25 | 84 | >99 |
| CC(C)(C)c1ccc(-c2ccc(CN(C(=O)C(=O)O)c3ccc(OC(F)(F)F)cc3)cc2)cc1 [Compound 615] | – | – | 43 | 98 | >99 | 95 |
| CC(C)(C)c1ccc(CN(C(=O)C(=O)O)c2ccc(C(=O)Nc3ccc(OC(F)(F)F)cc3)cc2)cc1 [Compound 617] | – | – | 6 | 64 | >99 | >99 |
| CN(C(=O)c1ccc(N(Cc2ccc(C(C)(C)C)cc2)C(=O)C(=O)O)cc1)c1ccc(OC(F)(F)F)cc1 [Compound 618] | – | – | 0 | 24 | 78 | >99 |
| CC(C)(C)c1ccc(CN(C(=O)C(=O)O)c2ccc(N3CCN(c4ccccc4)CC3)cc2)cc1 [Compound 627] | – | – | 0 | 14 | 57 | >99 |
| CC(C)(C)c1ccc(CN(C(=O)C(=O)O)c2ccc(N3CCN(c4ccc(OC(F)(F)F)cc4)CC3)cc2)cc1 [Compound 628] | – | – | 40 | >99 | >99 | 90 |
| O=C(O)C(=O)N(Cc1ccc(-c2ccc(OC(F)(F)F)cc2)cc1)c1ccccc1-c1ccccc1 [Compound 632] | 0 | 9 | 31 | 97 | – | – |
| O=C(O)C(=O)N(CCCCc1ccccc1)c1cc(-c2ccc(OC(F)(F)F)cc2)ccc1OC1C2CC3CC(C2)CC1C3 (centres unmarked) [Compound 634] | 17 | 37 | >99 | 92 | – | – |
| CC(C)(C)c1ccc(Oc2cc(-c3ccc(OC(F)(F)F)cc3)ccc2N(CCCCc2ccccc2)C(=O)C(=O)O)cc1 [Compound 635] | 14 | 30 | 45 | 91 | – | – |
| CC(C)(C)c1ccc(Oc2ccc(-c3ccc(OC(F)(F)F)cc3)cc2N(CCCCc2ccccc2)C(=O)C(=O)O)cc1 [Compound 636] | 2 | 21 | 72 | 81 | – | – |
| CCCCC1CCC(Oc2ccc(-c3ccc(OC(F)(F)F)cc3)cc2N(CCCCc2ccccc2)C(=O)C(=O)O)CC1 (centres unmarked) [Compound 637] | 0 | 5 | 80 | 71 | – | – |
| O=C(O)C(=O)N(CCCCc1ccccc1)c1cc(-c2ccc(OC(F)(F)F)cc2)ccc1Oc1ccccc1 [Compound 638] | 5 | 15 | 57 | >99 | – | – |

Source: US8633245B2, “PAI-1 inhibitor” (Institute of Medicinal Molecular Design, Inc., priority 2008, dated 2014)
